These results are taken from PubChem BioAssay AID1963840 (Molecular Pharmacology Branch, DTP, NCI, 2024).

Values joined by “and” are separate entries in the source; they are usually repeats but may differ in a detail not shown here. Equal values may be shown once.

In this assay the test system is 695427-040-R-J1-PDC complex spheroid viability. The experiment in a line: Anticancer human tumor 695427-040-R-J1-PDC patient-derived colon adenocarcinoma cell line growth inhibition [POLQ]. To be noted: for viability, T/C: stronger effect = lower value. How it is done:
Multicellular complex tumor spheroid response to Polymerase (POL) inhibitors (novobiocin, ART-558, RP6685) in combination with a variety of drugs and investigational agents in selected tumor cell lines
The POL inhibitors (novobiocin, ART-558, and RP6685) were evaluated both individually and in combination with standard of care and investigational anticancer small molecules within a complex spheroid model of solid tumors. . Complex spheroids include a stromal component modeled by human endothelial cells (HUVEC) and fibroblasts modeled by human mesenchymal stem cells (MSCs). The concentration ranges selected for each drug and investigational agent were based upon clinically achievable concentrations if the clinical Cmax of the agent was known.
Compounds. The drugs and investigational agents: novobiocin (NSC847541), ART-558 (NSC835418), RP-6685 (NSC848927), peposertib (NSC802822), ceralasertib (NSC780249), elimusertib (NSC800525), camonsertib (NSC841442), AZD-1390 (NSC803789), olaparib (NSC753686), talazoparib (NSC767125), rucaparib (NSC756644), sotorasib (NSC818433), MRTX-1133 (NSC836407), SN-38 (NSC673596), topotecan (NSC609699), epotoside (NSC141540), doxorubicin (NSC123127), gemcitabine (NSC613327), 5-fluorouracil (NSC19893), paclitaxel (NSC125973), vemurafenib (NSC761431), MSA-2 (NSC828583), SN-011 (NSC837082), adavosertib (NSC754352), prexasertib (NSC758257), carboplatin (NSC241240) and oxaliplatin (NSC266046), were obtained from the National Cancer Institute (NCI) Developmental Therapeutics Program Chemical Repository (21). The FDA-approved anticancer drug set is available from the Developmental Therapeutics Program at https://dtp.cancer.gov/organization/dscb/obtaining/. […] The stock solutions were prepared in dimethyl sulfoxide (DMSO, Sigma-Aldrich, St. Louis, MO, cat. D2650), except for the platinum compounds which were prepared in saline (Quality Biological, Gaithersburg, MD, cat. 114-055-101), at 800-fold the tested concentration and stored at -70 degrees C prior to their use. All drugs and investigational agents were tested over a range starting from a high concentration at or near the clinical Cmax and decreasing in half-log increments. If the clinical Cmax for an agent had not been determined, the highest concentration tested was 10 microM, except for SN-38, which was tested at a high concentration of 1 microM.
Cell Culture. All cells were maintained in an incubator at 37 degrees C and 5% CO2 with 95% humidity. The PDC lines were cultured according to standard operating procedures established by the NCI PDMR (https://pdmr.cancer.gov). Table 3 of the manuscript, lists the cell lines along with the number of the three cell types plated to form the mct-spheroids and media for tumor cell growth. After thawing, all PDC lines, except 997537-175-T-J1-PDC and 415267-285-R-J2-PDC, were cultured in Matrigel-coated flasks prepared with a working solution of 1X Ham's F-12 nutrient mix, without supplementation (Thermo Fisher Scientific, cat. 11765054), 100 U/mL penicillin-streptomycin (Thermo Fisher Scientific, cat. 15140122), and 2.5% Matrigel (Corning Inc., Corning, NY, cat. 354248) for the first three passages. The two PDC lines 997537-175-T-J1-PDC and 415267-285-R-J2-PDC were cultured on uncoated flasks. The 857933-349-R-J2-PDC line was cultured in 6C/Colon 1B media containing advanced DMEM/F-12 (Thermo Fisher Scientific, cat. 12634028), 10 mM HEPES (Thermo Fisher Scientific, cat. 15630080), 1X GlutaMAX supplement (Thermo Fisher Scientific, cat. 35050061), 0.1 mg/mL primocin (InvivoGen, San Diego, CA, cat. ant-pm-2), 10% defined fetal bovine serum, heat inactivated (HyClone Laboratories Inc., Logan, UT, cat. SH30070.03HI), 50% L-WRN conditioned media (ATCC, cat. CRL-3276), 1.25 mM N-Acetyl-L-cysteine (Sigma-Aldrich, cat. A9165), 10 mM nicotinamide (Sigma-Aldrich, cat. N0636), 1X B-27 supplement (Thermo Fisher Scientific, cat. 17504044), 1X N-2 supplement (Thermo Fisher Scientific, cat. […]

Where [1] appears, read: compound alone, run of 10/31/2023.
[2] abbreviates: compound alone, run of 11/06/2023.
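Note: spheroids exposed to compounds for seven days.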

For the compound `C=CCn1c(=O)c2cnc(Nc3ccc(N4CCN(C)CC4)cc3)nc2n1-c1cccc(C(C)(C)O)n1`, the viability, T/C (usually the ratio of treated to control) is, setting by setting: (compound 0.00316 µM) 99.5% and 88.8% and 103%; (compound 0.01 µM) 90.1% and 92% and 91.7%; (compound 0.0316 µM) 98.5% and 104% and 103%; (compound 0.1 µM) 103% and 99.2% and 95.7%; (compound 0.316 µM) 86.5% and 95.4% and 93.7%; (compound 1 µM) 77.5% and 73.7% and 82%. The IC50 (commonly the concentration that gives 50% inhibition) (curve of compound) is over 1000 nM.
In the case of `CC(=O)O[C@H]1C(=O)[C@@]2(C)[C@H]([C@H](OC(=O)c3ccccc3)[C@]3(O)C[C@H](OC(=O)[C@H](O)[C@@H](NC(=O)c4ccccc4)c4ccccc4)C(C)=C1C3(C)C)[C@]1(OC(C)=O)CO[C@@H]1C[C@@H]2O`, the viability, T/C (compound 0.00949 µM) was 93.8% and 92.4% and 99.8%; the viability, T/C (compound 0.03 µM) is 86.1% and 95.4% and 86.8%; the viability, T/C (compound 0.0949 µM) is 91.8% and 101% and 86.8%; the viability, T/C (compound 0.3 µM) was 90.8% and 96.8% and 89.7%; the viability, T/C (compound 0.949 µM) is 102% and 98.8% and 82.3%; the viability, T/C (compound 3 µM) is 84.5% and 89.3% and 74.2%. Also, the IC50 (curve of compound) is over 3000 nM.
With `CC[C@@]1(O)C(=O)OCc2c1cc1n(c2=O)Cc2cc3c(CN(C)C)c(O)ccc3nc2-1`, the viability, T/C runs as follows: (compound 0.000316 µM) 94.3% and 106% and 102%; (compound 0.001 µM) 105% and 101% and 103%; (compound 0.00316 µM) 102%; (compound 0.01 µM) 96.3% and 98.2% and 106%; (compound 0.0316 µM) 101% and 113% and 103%; (compound 0.1 µM) 94.8% and 111% and 89.7%. The IC50 (curve of compound) was over 100 nM.
On to `CCc1c2c(nc3ccc(O)cc13)-c1cc3c(c(=O)n1C2)COC(=O)[C@]3(O)CC`, for which the viability, T/C reads like this: (compound 0.00316 µM) 92.3% and 98.2% and 97%; (compound 0.01 µM) 79.9% and 89.2% and 92.2%; (compound 0.0316 µM) 76.8% and 99.3% and 92.6%; (compound 0.1 µM) 77.9% and 90.7% and 82.1%; (compound 0.316 µM) 65.9% and 87.4% and 76%; (compound 1 µM) 49.6% and 66.4% and 51.3%. The IC50 (curve of compound) was over 1000 nM.
On to `COC1C(OC(N)=O)C(O)C(Oc2ccc3c(O)c(NC(=O)c4ccc(O)c(CC=C(C)C)c4)c(=O)oc3c2C)OC1(C)C` (stereo not drawn), for which the viability, T/C (compound 0.0316 µM) was 104% [middle of 13 runs]; the viability, T/C (compound 0.1 µM) is 104% [middle of 13 runs]; the viability, T/C (compound 0.316 µM) was 106% [middle of 13 runs]; the viability, T/C (compound 1 µM) was 106% [middle of 13 runs]; the viability, T/C (compound 3.16 µM) is 110% [middle of 13 runs]; the viability, T/C (compound 10 µM) was 110% [middle of 13 runs]. Moreover, the IC50 under setting [1] is over 10000 nM.
Take `COc1cccc(OCCCN)c1-c1cc(Nc2cnc(C#N)cn2)n[nH]1`: the viability, T/C (compound 0.00316 µM) was 94.2% and 94.8% and 102%; the viability, T/C (compound 0.01 µM) is 84.4% and 93.3% and 91.1%; the viability, T/C (compound 0.0316 µM) was 80.9% and 87.1% and 92.6%; the viability, T/C (compound 0.1 µM) is 76% and 75.7% and 85.2%; the viability, T/C (compound 0.316 µM) was 53.1% and 74.3% and 72.6%; the viability, T/C (compound 1 µM) is 37.3% and 50.5% and 55.4%. For the same compound, the IC50 (curve of compound) was 448 nM and > 1000 nM.
Regarding `COc1cccc2c1C(=O)c1c(O)c3c(c(O)c1C2=O)CC(O)(C(=O)CO)CC3OC1CC(N)C(O)C(C)O1` (stereo not drawn), the viability, T/C reads like this: (compound 0.0316 µM) 87.5% and 98.1% and 92.7%; (compound 0.1 µM) 96.2% and 87.2% and 90.7%; (compound 0.316 µM) 95% and 96.7% and 101%; (compound 1 µM) 71.2% and 89.7% and 82.5%; (compound 3.16 µM) 66% and 74% and 68.7%; (compound 10 µM) 57.1% and 69.8% and 53.8%. The IC50 (curve of compound) was over 10000 nM.
As for `Cc1cccc(N(C)C(=O)C2C(O)CCN2c2nc(C)cc(C(F)(F)F)c2C#N)c1` (stereo not drawn), the viability, T/C by setting is: (compound 0.0316 µM) 102% [middle of 13 runs]; (compound 0.1 µM) 101% [middle of 13 runs]; (compound 0.316 µM) 100% [middle of 13 runs]; (compound 1 µM) 100% [middle of 13 runs]; (compound 3.16 µM) 99% [middle of 13 runs]; (compound 10 µM) 100% [middle of 13 runs]. The IC50 under setting [1] was over 10000 nM and the IC50 under setting [2] was over 10000 nM.
Turning to `Cn1ncnc1[C@H]1c2n[nH]c(=O)c3cc(F)cc(c23)N[C@@H]1c1ccc(F)cc1`, the viability, T/C was 105% and 96.4% and 102% (compound 0.000316 µM); 97.7% and 91% and 93.6% (compound 0.001 µM); 109% and 102% and 99.2% (compound 0.00316 µM); 101% and 109% and 104% (compound 0.01 µM); 106% and 113% and 101% (compound 0.0316 µM); 89.5% and 97.1% and 94.2% (compound 0.1 µM). For the same compound, the IC50 (curve of compound) was over 100 nM.
As for `Nc1ccc(C#CCN(C(=O)Cc2ncc(C(F)(F)F)cc2C(F)(F)F)c2ccc(F)cc2)nn1`, the viability, T/C is 91.6% [middle of 13 runs] (compound 0.0316 µM); 102% [middle of 13 runs] (compound 0.1 µM); 101% [middle of 13 runs] (compound 0.316 µM); 101% [middle of 13 runs] (compound 1 µM); 102% [middle of 13 runs] (compound 3.16 µM); 105% [middle of 12 runs] (compound 10 µM). For the same compound, the IC50 under setting [2] was over 10000 nM.
For the compound `O=c1[nH]cc(F)c(=O)[nH]1`, the viability, T/C was 105% (2×) and 104% (compound 0.0316 µM); 95.7% and 106% and 103% (compound 0.1 µM); 93.2% and 102% and 99.6% (compound 0.316 µM); 102% and 100% (2×) (compound 1 µM); 102% and 115% and 103% (compound 3.16 µM); 96% and 111% and 99.7% (compound 10 µM). Further, the IC50 (curve of compound) was over 10000 nM.
